The values below come from ChEMBL document CHEMBL5365400, “Design and synthesis of aminopyridine containing biaryls reducing c-MYC protein levels in cells” (Bioorg Med Chem Lett, 2023).

As usually defined, the chromatographic logD is a lipophilicity value derived from retention on a column. As usually defined, the solubility is how much of the substance goes into solution per volume. Low readings indicate a poorly soluble substance, high ones a readily soluble substance. As a reminder, the Cmax is the highest concentration seen after dosing. In general, AUC(0-inf) refers to the area under the concentration-time curve extrapolated to infinity. By half-life is commonly meant the time needed for the level to fall by half in the phase considered. A low value points to fast loss. In general, bioavailability refers to the share of a dose that reaches the circulation, judged against a reference dose that is usually intravenous.

Each structure is given as a SMILES string. Values after ≈ are worked out from the molar mass of the structure shown. Where only a bound is given, the exact number is not on record here.

A short description of series [1]: Lipophilicity, log D of the compound at pH 7.4 by chromatographic method. The format is physicochemical. To be noted: buffer.
Series [2] can be described thus: Aqueous solubility of compound. The following applies: buffer. The format is physicochemical.
Series [3] in a line: Clearance in po dosed rat. It counts as ADME, organism-based. To be noted: in vivo.
A short description of series [4]: Cmax in po dosed rat. The format is ADME, organism-based. Further details: route po. To be noted: in vivo.
Series [5] is described as follows: Artificial membrane permeability of compound. To be noted: PAMPA; read-out: permeability. The format is physicochemical.
Series [6] in a line: AUC (0 to infinity) in po dosed rat. The format is ADME, organism-based. Further details: route po. To be noted: in vivo.
The nature of series [7]: Volume of distribution at steady state in po dosed rat. To be noted: in vivo. It counts as ADME, organism-based.
Series [8] in a line: Half life in po dosed rat. The format is ADME, organism-based. To be noted: in vivo.
Series [9] in a line: Oral bioavailability in rat. The format is ADME, organism-based. The following applies: in vivo.

Regarding `CCN(CC)c1ccc(-c2nn3ccncc3c2Cc2coc(C)n2)cn1`, in series [1], the chromatographic logD worked out at 4.9. The molecule further yielded a solubility in series [2] above 65 µg/mL.
Consider `CCN(CC)c1ccc(-c2nc3cccnn3c2Cc2coc(C)n2)cn1`, for which the clearance in series [3] came to 190 mL/min/kg. The concentration in [4] peaked (Cmax) at 110 ng/mL. Further, the Papp in series [5] stood at 68.5 ×10⁻⁶ cm/s. In series [6], this molecule came in with an AUC(0-inf) of 94 ng·h/mL. Further, in series [1], the chromatographic logD is 5. For the same molecule, the Vdss in series [7] turned out to be 2.4 L/kg. In series [8], this molecule had a half-life of 13.2 min. Moreover, in series [2], the solubility was at least 187 µg/mL.
As to `CCN(CC)c1ccc(-c2nc3cnccn3c2Cc2coc(C)n2)cn1`, the chromatographic logD in series [1] was 4.2. For the same molecule, in series [2], the solubility came out at 169 µg/mL (≈ 466 µM).
For `CCOCCc1c(-c2ccc(N(CC)CC)nc2)c(=O)[nH]c2ccccc12` the same measures were 5 and 19 µg/mL (≈ 52 µM).
For `CCN(CC)c1ccc(-n2nc3ccccc3c2Cc2coc(C)n2)cn1` the same measures were 5.4 and 92 µg/mL (≈ 255 µM).
In [1], `CCOCCc1nc2ccccc2nc1-c1ccc(N(CC)CC)nc1` had a chromatographic logD of 7.4.
Turning to `Cc1nc(Cc2c(-c3ccc(N4[C@@H](C)CC[C@@H]4C)nc3)nc3cccnn23)co1`, the clearance in series [3] was 180 mL/min/kg. The same molecule yielded a peak concentration (Cmax) in series [4] of 220 ng/mL. Also, the Papp in series [5] amounted to 57 ×10⁻⁶ cm/s. This molecule also showed an area under the curve AUC(0-inf) in series [6] of 108 ng·h/mL. In [1], this molecule registered a chromatographic logD of 4.7. The molecule further yielded a Vdss in series [7] of 3.1 L/kg. In series [8], this molecule gave a half-life of 14.4 min. For the same molecule, the concentration in solution in series [2] (solubility) was 80 µg/mL (≈ 206 µM).
As for `CCOCCc1c(-c2ccc(N(CC)CC)nc2)c(=O)n(C)c2ccccc12`, in series [1], the chromatographic logD was found to be 6.2. This molecule also had a solubility in series [2] of 90 µg/mL (≈ 237 µM).
In [1], `CCOCCc1cccnc1-c1ccc(N(CC)CC)nc1` gave a chromatographic logD of 5.4.
Take `CCOCCc1c(-c2ccc(N(CC)CC)nc2)ncc2ccccc12`: in series [1], the chromatographic logD came to 7. The same molecule yielded a solubility in series [2] of 33 µg/mL (≈ 94.4 µM).
The molecule `CCOCCc1cc(-c2ccc(N(CC)CC)nc2)nc2ccccc12` returned a chromatographic logD in [1] of 8.
In series [1], `CCOCCn1c(-c2ccc(N(CC)CC)nc2)nc2ccccc21` returned a chromatographic logD of 6. The molecule further gave a solubility in series [2] of 67 µg/mL (≈ 198 µM).
As to `CCN(CC)c1ccc(-c2nc3nccnc3n2Cc2coc(C)n2)cn1`, in [1], the chromatographic logD turned out to be 3.7.
Turning to `CCOCCn1c(-c2ccc(N(CC)CC)nc2)nc(Br)c1Br`, the chromatographic logD in series [1] was found to be 6.9.
In series [1], `CCN(CC)c1ccc(-c2nc3ncncc3n2Cc2coc(C)n2)cn1` returned a chromatographic logD of 3. In series [2], this molecule registered a solubility of at least 119 µg/mL.
Consider `CCOCCc1c(-c2ccc(N(CC)CC)nc2)cnc2ccccc12`, for which, in [1], the chromatographic logD was determined as 6.9.
`CCN(CC)c1ccc(-c2nc3ncccn3c2Cc2coc(C)n2)cn1`: the chromatographic logD in series [1] was determined as 1.5. The solubility in [2] was at least 112 µg/mL.
The molecule `CCN(CC)c1ccc(-c2nn3cccnc3c2Cc2coc(C)n2)cn1` gave a chromatographic logD in series [1] of 4.9. Also, in [2], the solubility was at least 142 µg/mL.
`CCN(CC)c1ccc(-c2nc3ccccc3n2Cc2coc(C)n2)cn1` yielded a clearance in series [3] of 160 mL/min/kg. In series [9], this molecule displayed a bioavailability below 5%. The same molecule displayed a Cmax in series [4] of 180 ng/mL. The Papp in series [5] amounted to 68 ×10⁻⁶ cm/s. Moreover, in series [6], the AUC(0-inf) turned out to be 126 ng·h/mL. In series [1], this molecule registered a chromatographic logD of 5.1. Moreover, the Vdss in series [7] was 2.1 L/kg. Moreover, in [8], the half-life was 13.2 min. The molecule further came in with a solubility in series [2] of 65 µg/mL (≈ 180 µM).
Molecule `CCOCCc1cc2ccccc2nc1-c1ccc(N(CC)CC)nc1` displayed a chromatographic logD in series [1] of 7.2. Besides, the solubility in series [2] turned out to be 38 µg/mL (≈ 109 µM).
Molecule `CCOCCn1ccnc1-c1ccc(N(CC)CC)nc1` showed a chromatographic logD in series [1] of 4.2.
Consider `CCN(CC)c1ccc(-c2nn3ccccc3c2Cc2coc(C)n2)cn1`, for which, in series [1], the chromatographic logD turned out to be 5.4. Also, the solubility in [2] stood at 46 µg/mL (≈ 127 µM).
In series [1], `CCOCCc1cc(Cl)cnc1-c1ccc(N(CC)CC)nc1` showed a chromatographic logD of 7.4.
